Our source for the IC50 values is patent US20110130380A1, “Heteroaryl Kinase Inhibitors” (priority 2009, published 2011).

In the assay the target is Cdk9/cyclinT1 (Homo sapiens, UniProt P50750). The experiment in a line: Cdk9/cyclinT1 IMAP Protocol (fluorescence polarization kinase assay). The note with it: Cdk9_cyclinT1_IC50, Table V; generated using one of the two Cdk9/cyclinT1 assays (IMAP or Alpha Screen), not stated which; ATP 6 uM. In general terms: Fluorescence polarisation rises when a labelled molecule tumbles more slowly, as on binding a larger partner.

The structures appear in SMILES notation.

By IC50 is commonly meant the concentration that inhibits the measured activity by half. Higher therefore signals a need for much substance.

Sequence of Cdk9/cyclinT1 (P50750 whole entry): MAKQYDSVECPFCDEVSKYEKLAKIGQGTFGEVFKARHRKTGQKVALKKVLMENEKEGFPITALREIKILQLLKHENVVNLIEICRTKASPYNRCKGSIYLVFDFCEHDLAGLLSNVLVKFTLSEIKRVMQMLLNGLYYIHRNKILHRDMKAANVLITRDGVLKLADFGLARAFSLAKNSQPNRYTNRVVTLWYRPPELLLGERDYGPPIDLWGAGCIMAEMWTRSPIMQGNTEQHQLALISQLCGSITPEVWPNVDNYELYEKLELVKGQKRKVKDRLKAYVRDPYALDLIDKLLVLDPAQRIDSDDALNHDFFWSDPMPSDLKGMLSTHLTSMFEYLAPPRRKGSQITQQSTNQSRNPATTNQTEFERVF
Sequence of Cdk9/cyclinT1 (O60563 whole entry partner): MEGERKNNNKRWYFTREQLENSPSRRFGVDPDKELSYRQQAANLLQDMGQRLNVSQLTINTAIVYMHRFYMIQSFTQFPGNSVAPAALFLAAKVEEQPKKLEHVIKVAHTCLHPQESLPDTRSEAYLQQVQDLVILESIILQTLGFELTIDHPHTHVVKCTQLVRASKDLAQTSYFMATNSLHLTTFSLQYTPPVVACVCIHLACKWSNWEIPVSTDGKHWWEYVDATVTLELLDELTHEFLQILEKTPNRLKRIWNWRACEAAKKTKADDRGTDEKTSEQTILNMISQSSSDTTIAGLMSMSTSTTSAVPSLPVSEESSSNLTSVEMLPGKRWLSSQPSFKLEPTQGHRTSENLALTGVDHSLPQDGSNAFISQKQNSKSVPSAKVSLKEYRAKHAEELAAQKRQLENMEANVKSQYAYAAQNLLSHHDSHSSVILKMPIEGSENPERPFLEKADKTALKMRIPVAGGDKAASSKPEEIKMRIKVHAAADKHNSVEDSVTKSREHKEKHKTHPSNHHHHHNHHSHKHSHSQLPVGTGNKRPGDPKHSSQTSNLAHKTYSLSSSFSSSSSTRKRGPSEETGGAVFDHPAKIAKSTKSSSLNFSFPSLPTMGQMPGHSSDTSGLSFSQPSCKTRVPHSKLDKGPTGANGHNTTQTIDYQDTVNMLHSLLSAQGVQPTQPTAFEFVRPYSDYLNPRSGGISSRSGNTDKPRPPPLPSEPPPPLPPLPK

The compound `C[C@@H]1CC(CNc2cccc(-c3cc(NC(=O)[C@@H]4CCNC4)ncc3Cl)n2)C[C@H](C)O1` (stereo partly drawn) [Example 170, (R)-Pyrrolidine-3-carboxylic acid {5′-chloro-6-[((2R,6S)-2,6-dimethyl-tetrahydro-pyran-4-ylmethyl)-amino]-[2,4′]bipyridinyl-2′-yl}-amide] gave a half-inhibitory concentration (IC50) of 1 nM. As for `CO[C@H]1CNC[C@@H]1C(=O)Nc1cc(-c2cccc(NCC3C[C@@H](C)O[C@@H](C)C3)n2)c(Cl)cn1` (stereo partly drawn) [Example 171, (3S,4R)-4-Methoxy-pyrrolidine-3-carboxylic acid {5′-chloro-6-[((2R,6S)-2,6-dimethyl-tetrahydro-pyran-4-ylmethyl)-amino]-[2,4′]bipyridinyl-2′-yl}-amide], the figure is 1 nM.

In turn, `O=C(Nc1cc(-c2cccc(NCC3CCOCC3)n2)c(Cl)cn1)[C@@H]1CNC[C@H](F)C1` [Example 176, (3S,5R)-5-Fluoro-piperidine-3-carboxylic acid {5′-chloro-6-[(tetrahydro-pyran-4-ylmethyl)-amino]-[2,4′]bipyridinyl-2′-yl}-amide] gave a 50% inhibitory concentration (IC50) of 23 nM. `O=C(Nc1cc(-c2cccc(NCC3CCOCC3)n2)c(Cl)cn1)[C@H]1CNC[C@@H](F)C1` [Example 177, (3R,5S)-5-Fluoro-piperidine-3-carboxylic acid {5′-chloro-6-[(tetrahydro-pyran-4-ylmethyl)-amino]-[2,4′]bipyridinyl-2′-yl}-amide] gave an IC50 of 5 nM. Then `O=C(Nc1cc(-c2cccc(NCC3CCOCC3)n2)c(Cl)cn1)[C@@H]1CN[C@H](CF)C1` [Example 178, (3S,5S)-5-Fluoromethyl-pyrrolidine-3-carboxylic acid {5′-chloro-6-[(tetrahydro-pyran-4-ylmethyl)-amino]-[2,4′]bipyridinyl-2′-yl}-amide], with 1 nM; and `O=C(Nc1cc(-c2cccc(NCC3CCOCC3)n2)c(Cl)cn1)[C@H]1CN[C@@H](CF)C1` [Example 179, (3R,5R)-5-Fluoromethyl-pyrrolidine-3-carboxylic acid {5′-chloro-6-[(tetrahydro-pyran-4-ylmethyl)-amino]-[2,4′]bipyridinyl-2′-yl}-amide], with 7 nM. Consider `[2H]C([2H])(Nc1cccc(-c2cc(NC(=O)[C@H]3CNCCO3)ncc2Cl)n1)C1CCOCC1` [Example 180, (R)-Morpholine-2-carboxylic acid {5′-chloro-6-[(tetrahydro-pyran-4-yl(dideuteromethyl))-amino]-[2,4′]bipyridinyl-2′-yl}-amide], for which the half-maximal inhibitory concentration (IC50) is 20 nM. `CO[C@H]1CNC[C@@H]1C(=O)Nc1cc(-c2nc(NCC3CCOCC3)c(F)cc2Cl)c(Cl)cn1` [Example 181, (3S,4R)-4-Methoxy-pyrrolidine-3-carboxylic acid {3,5′-dichloro-5-fluoro-6-[(tetrahydro-pyran-4-ylmethyl)-amino]-[2,4′]bipyridinyl-2′-yl}-amide] had an IC50 of 1 nM. Then `COC[C@@H]1C[C@@H](C(=O)Nc2cc(-c3nc(NCC4CCOCC4)ccc3Cl)c(Cl)cn2)CN1` [Example 185, (3R,5S)-5-Methoxymethyl-pyrrolidine-3-carboxylic acid {3,5′-dichloro-6-[(tetrahydro-pyran-4-ylmethyl)-amino]-[2,4′]bipyridinyl-2′-yl}-amide], with 1 nM. Compound `COC[C@@H]1C[C@@H](C(=O)Nc2cc(-c3nc(NCC4CCOC(C)(C)C4)ccc3Cl)c(Cl)cn2)CN1` (stereo partly drawn) [Example 186, (3R,5S)-5-Methoxymethyl-pyrrolidine-3-carboxylic acid {3,5′-dichloro-6-[(2,2-dimethyl-tetrahydro-pyran-4-ylmethyl)-amino]-[2,4′]bipyridinyl-2′-yl}-amide] returned an IC50 of 1 nM. `O=C(Nc1cc(-c2cccc(NCC3CCOCC3)n2)c(Cl)cn1)C1CNCCOC1` (centres unmarked) [Example 187, [1,4]Oxazepane-6-carboxylic acid {5′-chloro-6-[(tetrahydro-pyran-4-ylmethyl)-amino]-[2,4′]bipyridinyl-2′-yl}-amide] gave a half-maximal inhibitory concentration (IC50) of 3 nM. Then `CC1(C)CC(CNc2cccc(-c3cc(NC(=O)[C@@H]4CCNC4)ncc3Cl)n2)CCO1` (stereo partly drawn) [Example 188, (R)-Pyrrolidine-3-carboxylic acid {5′-chloro-6-[(2,2-dimethyl-tetrahydro-pyran-4-ylmethyl)-amino]-[2,4′]bipyridinyl-2′-yl}-amide], with 1 nM. Consider `O=C(Nc1cc(-c2nc(NCC3CCOCC3)ccc2Cl)c(Cl)cn1)C1CNCCOC1` (centres unmarked) [Example 191, [1,4]Oxazepane-6-carboxylic acid {3,5′-dichloro-6-[(tetrahydro-pyran-4-ylmethyl)-amino]-[2,4′]bipyridinyl-2′-yl}-amide], for which the IC50 came out at 1 nM.

Take `COC1(CNc2ccc(Cl)c(-c3cc(NC(=O)[C@@H]4CCCNC4)ncc3Cl)n2)CCOCC1` [Example 192, (R)-Piperidine-3-carboxylic acid {3,5′-dichloro-6-[(4-methoxy-tetrahydro-pyran-4-ylmethyl)-amino]-[2,4′]bipyridinyl-2′-yl}-amide]: the IC50 turned out to be 1 nM. For the compound `O=C(Nc1cc(-c2cccc(NCC3CCOCC3)n2)c(Cl)cn1)C1CCCCNC1` (centres unmarked) [Example 193, Azepane-3-carboxylic acid {5′-chloro-6-[(tetrahydro-pyran-4-ylmethyl)-amino]-[2,4′]bipyridinyl-2′-yl}-amide], the midpoint of inhibition, the IC50, lay at 2 nM.

As to `O=C(Nc1cc(-c2nc(NCC3CCOCC3)ccc2Cl)c(Cl)cn1)C1CCCCNC1` (centres unmarked) [Example 194, Azepane-3-carboxylic acid {3,5′-dichloro-6-[(tetrahydro-pyran-4-ylmethyl)-amino]-[2,4′]bipyridinyl-2′-yl}-amide], inhibition was half-maximal at 1 nM (IC50). Then `CC1(C)CCC(C(=O)Nc2cc(-c3cccc(NCC4CCOCC4)n3)ccn2)CN1` (centres unmarked) [Example 195, 6,6-Dimethyl-N-(6-(((tetrahydro-2H-pyran-4-yl)methyl)amino)-2,4′-bipyridin-2′-yl)piperidine-3-carboxamide], with 2 nM.

`CC1(C)CC(CNc2nc(-c3cc(NC(=O)[C@@H]4CCCNC4)ncc3Cl)ccc2F)CCO1` (stereo partly drawn) [Example 198, (R)-Piperidine-3-carboxylic acid {5′-chloro-6-[(2,2-dimethyl-tetrahydro-pyran-4-ylmethyl)-amino]-5-fluoro-[2,4′]bipyridinyl-2′-yl}-amide] had an IC50 of 1 nM. Turning to `CN1CCCCC(C(=O)Nc2cc(-c3cccc(NCC4CCOCC4)n3)c(Cl)cn2)C1` (centres unmarked) [Example 199, 1-Methyl-azepane-3-carboxylic acid {5′-chloro-6-[(tetrahydro-pyran-4-ylmethyl)-amino]-[2,4′]bipyridinyl-2′-yl}-amide], the IC50 is 51 nM.

On to `CN1CCCCC(C(=O)Nc2cc(-c3nc(NCC4CCOCC4)ccc3Cl)c(Cl)cn2)C1` (centres unmarked) [Example 200, 1-Methyl-azepane-3-carboxylic acid {3,5′-dichloro-6-[(tetrahydro-pyran-4-ylmethyl)-amino]-[2,4′]bipyridinyl-2′-yl}-amide], for which the 50% inhibitory concentration (IC50) was 31 nM.

Regarding `O=C(Nc1cc(-c2ccc(F)c(NCC3CCOCC3)n2)c(Cl)cn1)C1CNCCOC1` (centres unmarked) [Example 201, [1,4]Oxazepane-6-carboxylic acid {5′-chloro-5-fluoro-6-[(tetrahydro-pyran-4-ylmethyl)-amino]-[2,4′]bipyridinyl-2′-yl}-amide], the IC50 was determined as 1 nM.

For the compound `CC1(C)CC(CNc2cccc(-c3cc(NC(=O)C4CNCCOC4)ncc3Cl)n2)CCO1` (centres unmarked) [Example 202, [1,4]Oxazepane-6-carboxylic acid {5′-chloro-6-[(2,2-dimethyl-tetrahydro-pyran-4-ylmethyl)-amino]-[2,4′]bipyridinyl-2′-yl}-amide], half-maximal inhibition (IC50) required 2 nM. Then `C[C@@H]1CC(CNc2cccc(-c3cc(NC(=O)C4CNCCOC4)ncc3Cl)n2)C[C@H](C)O1` (stereo partly drawn) [Example 203, [1,4]Oxazepane-6-carboxylic acid {5′-chloro-6-[((2R,6S)-2,6-dimethyl-tetrahydro-pyran-4-ylmethyl)-amino]-[2,4′]bipyridinyl-2′-yl}-amide], with 3 nM; and `O=C(Nc1cc(-c2nc(NCC3CCOCC3)ccc2F)c(Cl)cn1)C1CNCCOC1` (centres unmarked) [Example 204, [1,4]Oxazepane-6-carboxylic acid {5′-chloro-3-fluoro-6-[(tetrahydro-pyran-4-ylmethyl)-amino]-[2,4′]bipyridinyl-2′-yl}-amide], with 1 nM; and `O=C(Nc1cc(-c2ccc(F)c(NCC3CCOCC3)n2)c(Cl)cn1)[C@H]1CNCCO1` [Example 205, (R)-Morpholine-2-carboxylic acid {5′-chloro-5-fluoro-6-[(tetrahydro-pyran-4-ylmethyl)-amino]-[2,4′]bipyridinyl-2′-yl}-amide], with 5 nM.

As for `CC1(C)CCC(C(=O)Nc2cc(-c3cccc(NCC4CCOCC4)n3)c(Cl)cn2)CN1` (centres unmarked) [Example 206, 6,6-Dimethyl-piperidine-3-carboxylic acid {5′-chloro-6-[(tetrahydro-pyran-4-ylmethyl)-amino]-[2,4′]bipyridinyl-2′-yl}-amide], the IC50 came to 1 nM. `CC1(CNc2cccc(-c3cc(NC(=O)[C@@H]4CCCNC4)ncc3Cl)n2)CCOCC1` [Example 207, (R)-Piperidine-3-carboxylic acid {5′-chloro-6-[(4-methyl-tetrahydro-pyran-4-ylmethyl)-amino]-[2,4′]bipyridinyl-2′-yl}-amide] gave a half-maximal inhibitory concentration (IC50) of 1 nM. As for `CC1(CNc2nc(-c3cc(NC(=O)[C@@H]4CCCNC4)ncc3Cl)ccc2F)CCOCC1` [Example 208, (R)-Piperidine-3-carboxylic acid {5′-chloro-5-fluoro-6-[(4-methyl-tetrahydro-pyran-4-ylmethyl)-amino]-[2,4′]bipyridinyl-2′-yl}-amide], the figure is 1 nM; as for `CCC1(CNc2nc(-c3cc(NC(=O)[C@@H]4CCCNC4)ncc3Cl)ccc2F)CCOCC1` [Example 209, (R)-Piperidine-3-carboxylic acid {5′-chloro-6-[(4-ethyl-tetrahydro-pyran-4-ylmethyl)-amino]-5-fluoro-[2,4′]bipyridinyl-2′-yl}-amide], 1 nM.
